Laboratory results published in ChEMBL document CHEMBL1126418, “Synthesis of chemically stable 9-substituted carbacyclin derivatives and their biological use” (Bioorg Med Chem Lett, 1992).

Experiments:
Homo sapiens [1] = species: Homo sapiens; experiment: Compound was tested for inhibition of blood platelet aggregation induced by ADP; 0.2-0.5*10e-9; type: functional, organism-based
[2] = biological target: Prostacyclin receptor (Homo sapiens) (UniProt P43119); experiment: Affinity for Prostaglandin I2 receptor; set-up: unit not given here
Sequence of Prostacyclin receptor (Homo sapiens) (P43119 whole entry): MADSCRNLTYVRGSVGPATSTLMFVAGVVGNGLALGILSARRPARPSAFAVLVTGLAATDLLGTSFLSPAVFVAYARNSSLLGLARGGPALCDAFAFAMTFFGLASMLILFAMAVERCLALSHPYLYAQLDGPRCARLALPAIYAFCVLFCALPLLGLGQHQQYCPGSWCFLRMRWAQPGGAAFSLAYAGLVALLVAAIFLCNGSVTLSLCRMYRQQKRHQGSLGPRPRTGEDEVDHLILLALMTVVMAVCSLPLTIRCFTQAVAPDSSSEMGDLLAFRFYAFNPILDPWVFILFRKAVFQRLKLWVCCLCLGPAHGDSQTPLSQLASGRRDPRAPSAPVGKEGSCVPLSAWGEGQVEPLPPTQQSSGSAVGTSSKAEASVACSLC

[3] = Evaluated for the relative potency to that of Iloprost.; type: functional
Homo sapiens [4] = species: Homo sapiens; experiment: The compound was tested for inhibition of blood platelet aggregation induced by ADP; type: functional, organism-based
Homo sapiens [5] = species: Homo sapiens; experiment: The compound was tested for inhibition of blood platelet aggregation induced by ADP; 0.5-2.5*10e-9; type: functional, organism-based
Homo sapiens [6] = species: Homo sapiens; experiment: The compound was tested for inhibition of blood platelet aggregation induced by ADP; 100-250*10e-9; type: functional, organism-based

SMILES	IC50 (Homo sapiens [1]) [nM]	KF [2]	IC50 (Homo sapiens [4]) [nM]	IC50 (Homo sapiens [5]) [nM]	IC50 (Homo sapiens [6]) [nM]	Relative potency [3]
CC#CCC(C)[C@H](O)/C=C/[C@@H]1[C@H]2C/C(=C/CCCC(=O)O)C[C@H]2C[C@H]1O (stereo in doubt; 1) [ILOPROST]	0.2	1				1
CC#CCC(C)[C@H](O)/C=C/[C@H]1[C@H](O)C[C@]2(CCCCCO)C/C(=C/CCCC(=O)O)C[C@H]12 (some centres undefined)		n.k.	11000			4e-05
CC#CCC(C)[C@H](O)/C=C/[C@H]1[C@H](O)C[C@]2(C#CCCCN=[N+]=[N-])C/C(=C\CCCC(=O)O)C[C@H]12 (some centres undefined)		6	20			0.1
CC#CCC(C)[C@H](O)/C=C/[C@H]1[C@H](O)C[C@]2(C#CCCCO)C/C(=C/CCCC(=O)O)C[C@H]12 (some centres undefined)		300	200			0.004
CC#CCC(C)[C@H](O)/C=C/[C@H]1[C@H](O)C[C@]2(C#CCCC(=O)O)C/C(=C\CCCC(=O)O)C[C@H]12 (some centres undefined)		200	2000			0.0002
CC#CCC(C)[C@H](O)/C=C/[C@H]1[C@H](O)C[C@]2(C#CCCCBr)C/C(=C\CCCC(=O)O)C[C@H]12 (some centres undefined)		3		0.5		1
CC#CCC(C)[C@H](O)/C=C/[C@H]1[C@H](O)C[C@]2(CCCCCN=[N+]=[N-])C/C(=C\CCCC(=O)O)C[C@H]12 (some centres undefined)		29	500			0.0005

Continued, in another order:

IC50 (Homo sapiens [1]) [nM]	KF [2]	IC50 (Homo sapiens [4]) [nM]	IC50 (Homo sapiens [5]) [nM]	IC50 (Homo sapiens [6]) [nM]	SMILES	Relative potency [3]
	11	4400			CC#CCC(C)[C@H](O)/C=C/[C@@H]1[C@H]2CC(=CCCCC(=O)O)C[C@H]2C[C@H]1O (some centres undefined) [ILOPROST]	0.0001
	180	400			CC#CCC(C)[C@H](O)/C=C/[C@H]1[C@H](O)C[C@]2(CCC#CCCCO)C/C(=C\CCCC(=O)O)C[C@H]12 (some centres undefined)	0.002
	25	10			CC#CCC(C)[C@H](O)/C=C/[C@H]1[C@H](O)C[C@]2(C#CCCCO)C/C(=C\CCCC(=O)O)C[C@H]12 (some centres undefined)	0.2
	5.6	5			CC#CCC(C)[C@H](O)/C=C/[C@H]1[C@H](O)C[C@]2(C#CCCCI)C/C(=C\CCCC(=O)O)C[C@H]12 (some centres undefined)	1
	> 100	200			CC#CCC(C)[C@H](O)/C=C/[C@H]1[C@H](O)C[C@]2(C#CCCCI)C/C(=C/CCCC(=O)O)C[C@H]12 (some centres undefined)	0.001
				100	CC#CCC(C)[C@H](O)/C=C/[C@H]1[C@H](O)C[C@]2(C#CCCCBr)C/C(=C/CCCC(=O)O)C[C@H]12 (some centres undefined)	0.001
	80	850			CC#CCC(C)[C@H](O)/C=C/[C@H]1[C@H](O)C[C@]2(C#CCCCN=[N+]=[N-])C/C(=C/CCCC(=O)O)C[C@H]12 (some centres undefined)	0.003
	130	7000			CC#CCC(C)[C@H](O)/C=C/[C@H]1[C@H](O)C[C@]2(CCCCCO)C/C(=C\CCCC(=O)O)C[C@H]12 (some centres undefined)	0.0006
